Assay [1] relates to Panel NCI-60 (60 carcinoma cell lines). Kind of assay: Growth inhibition of human Panel NCI-60 (60 carcinoma cell lines) cells at 10 uM measured after 48 hrs by SRB assay relative to control. In kind it is functional. The conditions noted are these: read-out: GI.
The target in assay [2] is RAF proto-oncogene serine/threonine-protein kinase (Homo sapiens, UniProt P04049). Kind of assay: Inhibition of human CRAF using MEK1 (K97R) as substrate in presence of [gamma-33P]ATP by scintillation counting method.
RAF proto-oncogene serine/threonine-protein kinase, sequence (P04049 whole entry): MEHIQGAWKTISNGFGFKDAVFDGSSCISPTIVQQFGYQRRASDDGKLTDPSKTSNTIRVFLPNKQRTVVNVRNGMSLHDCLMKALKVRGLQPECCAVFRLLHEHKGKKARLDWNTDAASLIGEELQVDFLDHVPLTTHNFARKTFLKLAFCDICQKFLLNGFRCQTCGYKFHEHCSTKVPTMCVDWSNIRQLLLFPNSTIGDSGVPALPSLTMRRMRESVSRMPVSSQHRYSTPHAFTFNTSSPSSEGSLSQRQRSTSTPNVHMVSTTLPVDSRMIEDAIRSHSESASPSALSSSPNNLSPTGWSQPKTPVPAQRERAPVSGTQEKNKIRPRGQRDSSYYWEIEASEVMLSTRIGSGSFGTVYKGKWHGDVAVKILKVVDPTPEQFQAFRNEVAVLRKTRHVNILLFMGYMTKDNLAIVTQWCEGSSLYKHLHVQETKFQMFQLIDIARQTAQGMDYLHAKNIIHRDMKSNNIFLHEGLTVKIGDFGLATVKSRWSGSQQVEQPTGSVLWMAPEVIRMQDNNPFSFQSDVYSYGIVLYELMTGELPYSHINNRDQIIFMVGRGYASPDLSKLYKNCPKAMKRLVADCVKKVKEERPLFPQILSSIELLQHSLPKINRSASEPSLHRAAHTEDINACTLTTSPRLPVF
In assay [3] the target is Serine/threonine-protein kinase B-raf (Homo sapiens, UniProt P15056). Kind of assay: Inhibition of human BRAF using MEK1 (K97R) as substrate in presence of [gamma-33P]ATP by scintillation counting method.
Serine/threonine-protein kinase B-raf (Homo sapiens, UniProt P15056), sequence (P15056 whole entry): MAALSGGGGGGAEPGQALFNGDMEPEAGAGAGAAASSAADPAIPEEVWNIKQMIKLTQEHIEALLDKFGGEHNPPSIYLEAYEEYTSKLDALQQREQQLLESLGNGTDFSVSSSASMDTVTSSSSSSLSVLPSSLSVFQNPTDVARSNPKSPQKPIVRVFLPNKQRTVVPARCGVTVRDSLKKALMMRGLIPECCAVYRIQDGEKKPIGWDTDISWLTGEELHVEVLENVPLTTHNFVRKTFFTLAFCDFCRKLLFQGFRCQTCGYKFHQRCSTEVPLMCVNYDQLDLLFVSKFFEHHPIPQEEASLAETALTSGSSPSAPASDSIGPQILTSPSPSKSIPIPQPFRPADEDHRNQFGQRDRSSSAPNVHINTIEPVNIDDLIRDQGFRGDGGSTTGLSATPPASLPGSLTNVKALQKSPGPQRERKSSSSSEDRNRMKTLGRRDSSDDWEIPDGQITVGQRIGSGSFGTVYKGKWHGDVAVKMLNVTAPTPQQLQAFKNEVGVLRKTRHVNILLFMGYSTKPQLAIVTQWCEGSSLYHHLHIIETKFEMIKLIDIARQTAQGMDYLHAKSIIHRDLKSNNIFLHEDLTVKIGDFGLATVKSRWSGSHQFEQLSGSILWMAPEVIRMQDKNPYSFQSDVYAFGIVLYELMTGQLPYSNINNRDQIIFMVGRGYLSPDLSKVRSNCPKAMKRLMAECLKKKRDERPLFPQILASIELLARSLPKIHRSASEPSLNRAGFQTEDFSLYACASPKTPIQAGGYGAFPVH
Assay [4] addresses Serine/threonine-protein kinase B-raf (Homo sapiens, UniProt P15056, V600E). Description: Inhibition of human BRAF V600E mutant using MEK1 (K97R) as substrate in presence of [gamma-33P]ATP by scintillation counting method.
For assay [5], the species on record is Homo sapiens. Kind of assay: Selectivity ratio of IC50 for inhibition of human BRAF V600E mutant to IC50 for inhibition of human CRAF.
Assay [6] has as its system CCRF-CEM. Description: Growth inhibition of human CCRF-CEM cells at 10 uM measured after 48 hrs by SRB assay relative to control. In kind it is functional. The following applies: read-out: GI. A general note: The SRB assay estimates cell density from bound dye.
The subject of assay [7] is K562. Kind of assay: Growth inhibition of human K562 cells at 10 uM measured after 48 hrs by SRB assay relative to control. Type of assay: functional. The conditions noted are these: read-out: GI.
Assay [8] relates to MOLT-4. Description: Growth inhibition of human MOLT-4 cells at 10 uM measured after 48 hrs by SRB assay relative to control. The following applies: read-out: GI. Type of assay: functional.
Assay [9] relates to RPMI-8226. Description: Growth inhibition of human RPMI-8226 cells at 10 uM measured after 48 hrs by SRB assay relative to control. The following applies: read-out: GI. In kind it is functional.
Assay [10] concerns SR. Kind of assay: Growth inhibition of human SR cells at 10 uM measured after 48 hrs by SRB assay relative to control. In kind it is functional. The following applies: read-out: GI.
In assay [11] the test system is A549. Kind of assay: Growth inhibition of human A549 cells at 10 uM measured after 48 hrs by SRB assay relative to control. The conditions noted are these: read-out: GI. Type of assay: functional.
Assay [12] has as its system HOP-92. Description: Growth inhibition of human HOP-92 cells at 10 uM measured after 48 hrs by SRB assay relative to control. The following applies: read-out: GI. Type of assay: functional.
Assay [13] relates to NCI-H522. Description: Growth inhibition of human NCI-H522 cells at 10 uM measured after 48 hrs by SRB assay relative to control. In kind it is functional. The following applies: read-out: GI.
Assay [14] concerns HCT-116. Description: Growth inhibition of human HCT-116 cells at 10 uM measured after 48 hrs by SRB assay relative to control. The conditions noted are these: read-out: GI. Type of assay: functional.
Assay [15] deals with HT-29. Description: Growth inhibition of human HT-29 cells at 10 uM measured after 48 hrs by SRB assay relative to control. Type of assay: functional. The following applies: read-out: GI.
Assay [16] relates to 786-0. Description: Growth inhibition of human 786-0 cells at 10 uM measured after 48 hrs by SRB assay relative to control. In kind it is functional. The following applies: read-out: GI.
Assay [17] deals with A498. Description: Growth inhibition of human A498 cells at 10 uM measured after 48 hrs by SRB assay relative to control. Type of assay: functional. The following applies: read-out: GI.
For assay [18], the system named is UO-31. Kind of assay: Growth inhibition of human UO-31 cells at 10 uM measured after 48 hrs by SRB assay relative to control. In kind it is functional. The following applies: read-out: GI.
Assay [19] relates to PC-3. Kind of assay: Growth inhibition of human PC-3 cells at 10 uM measured after 48 hrs by SRB assay relative to control. Type of assay: functional. The conditions noted are these: read-out: GI.
Assay [20] concerns T47D. Kind of assay: Growth inhibition of human T47D cells at 10 uM measured after 48 hrs by SRB assay relative to control. In kind it is functional. The following applies: read-out: GI.
The species entered for assay [21] is Sus scrofa. Description: Induction of porcine brain tubulin polymerization at 10 uM measured at 30 secs interval for 60 mins by fluorescence assay. Type of assay: tissue-based.

Molecules are shown by their SMILES. Activity calls are given as the source filed them. The rule behind the calls is not given here.

Serine/threonine-protein kinase B-raf (Homo sapiens, UniProt P15056, V600E), sequence (P15056 2-766 V600E limits assumed): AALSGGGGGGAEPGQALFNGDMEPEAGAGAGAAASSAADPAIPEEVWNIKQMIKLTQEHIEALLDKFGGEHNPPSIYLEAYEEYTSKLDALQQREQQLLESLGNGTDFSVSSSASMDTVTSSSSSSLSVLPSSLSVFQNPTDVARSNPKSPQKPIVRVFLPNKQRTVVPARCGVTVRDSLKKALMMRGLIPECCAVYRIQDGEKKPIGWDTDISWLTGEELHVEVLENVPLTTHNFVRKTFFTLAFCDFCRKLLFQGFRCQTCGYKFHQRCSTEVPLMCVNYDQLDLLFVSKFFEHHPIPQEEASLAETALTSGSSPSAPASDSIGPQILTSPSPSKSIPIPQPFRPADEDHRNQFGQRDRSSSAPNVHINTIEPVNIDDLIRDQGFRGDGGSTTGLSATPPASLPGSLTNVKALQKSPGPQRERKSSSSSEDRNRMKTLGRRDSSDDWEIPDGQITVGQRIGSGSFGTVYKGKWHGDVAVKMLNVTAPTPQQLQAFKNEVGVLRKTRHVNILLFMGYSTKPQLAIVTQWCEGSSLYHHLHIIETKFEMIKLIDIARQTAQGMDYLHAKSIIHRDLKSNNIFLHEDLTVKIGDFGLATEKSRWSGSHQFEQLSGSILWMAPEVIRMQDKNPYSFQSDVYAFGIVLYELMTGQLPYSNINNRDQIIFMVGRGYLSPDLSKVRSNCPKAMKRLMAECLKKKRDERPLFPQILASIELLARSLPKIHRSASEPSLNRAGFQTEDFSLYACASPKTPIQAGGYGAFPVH

In the case of `COc1cccc2nc(Nc3cccc(NC(=O)c4cc(-n5cnc(C)c5)cc(C(F)(F)F)c4)c3)ccc12`, in [1], the inhibition of growth at 10 µM stood at 32.6%. Further, the IC50 in assay [2] amounted to 0.414 µM; in [3], 9.28 µM; in assay [4], 1.1 µM. Further, in assay [5], the Ratio IC50 came to 2.

Turning to `COc1cccc2nc(Nc3cccc(NC(=O)c4cccc(Cl)n4)c3)ccc12`, the inhibition of growth at 10 µM in assay [1] was 4.88%; in assay [6] it was < 20%; in assay [7], < 20%; in assay [8], 23.3%; in assay [9] it was < 20%; in assay [10], < 20%. For the same molecule, the inhibition of growth at 10 µM in assay [11], in assay [12], in [13], in assay [14], in assay [15] and in assay [16] was < 20% throughout. Further, the inhibition of growth at 10 µM in [17] is 32.4%; in assay [18], < 20%; in [19] it was 20.6%; in assay [20] it was < 20%.

In the case of `COc1cccc2nc(Nc3ccc(NC(=O)c4ccc(Cl)c(C(F)(F)F)c4)cc3)ccc12`, the inhibition of growth at 10 µM in assay [1] was 6.32%; in assay [6] it was < 20%; in [7], 47.5%; in assay [8], 27.6%; in [9], < 20%; in assay [10], < 20%. The inhibition of growth at 10 µM was < 20% in assay [11]; 32% in assay [12]; < 20% in assay [13]; < 20% in assay [14]; 21.8% in [15]; < 20% in [16]. Further, the inhibition of growth at 10 µM in assay [17] is 22.6%; in assay [18] it was < 20%; in assay [19], < 20%; in assay [20] it was < 20%.

In the case of `COc1cccc2nc(Nc3cccc(NC(=O)c4ccc5c(c4)OCCO5)c3)ccc12`, the inhibition of growth at 10 µM came out at 17.8% in assay [1]; 33.4% in assay [6]; 67.8% in assay [7]; 75.2% in assay [8]; 39.7% in assay [9]; 56.7% in assay [10]. Besides, the inhibition of growth at 10 µM in assay [11] was < 20%; in [12] it was < 20%; in assay [13] it was < 20%; in assay [14], 32.5%; in assay [15], < 20%; in [16], 48.3%. The inhibition of growth at 10 µM was 26.2% in assay [17], < 20% in assay [18], 32.1% in assay [19] and 46% in assay [20].

On to `COc1cccc2nc(Nc3cccc(NC(=O)c4cc(N5CCOCC5)cc(C(F)(F)F)c4)c3)ccc12`, for which the inhibition of growth at 10 µM in assay [1] was 38.3%. For the same molecule, the IC50 was 0.616 µM in assay [2], 5.87 µM in assay [3] and 1.49 µM in assay [4]. Also, the Ratio IC50 in [5] is 2.

As to `COc1cccc2nc(Nc3ccc(NC(=O)c4ccc5c(c4)OCCO5)cc3)ccc12`, the inhibition of growth at 10 µM in [1] is -1.17%; in assay [6], < 20%; in assay [7], < 20%; in [8], < 20%; in assay [9] it was < 20%; in [10] it was < 20%. The inhibition of growth at 10 µM in assay [11], in [12], in assay [13], in assay [14], in assay [15] and in [16] was < 20% in each case. Also, the inhibition of growth at 10 µM in assay [17], in assay [18], in [19] and in assay [20] was < 20% throughout.

For the molecule `COc1cccc2nc(Nc3cccc(NC(=O)c4ccc5ncccc5c4)c3)ccc12`, the inhibition of growth at 10 µM came to 28.6% in assay [1]; 36.9% in assay [6]; 61.1% in [7]; 64.2% in assay [8]; 94.6% in assay [9]; 55.9% in assay [10]. Moreover, the inhibition of growth at 10 µM in [11] was 20.9%; in [12] it was 48.5%; in assay [13], < 20%; in assay [14] it was 53.3%; in [15] it was 42.4%; in [16] it was 51.4%. Besides, the inhibition of growth at 10 µM in assay [17] is < 20%; in [18] it was 22.9%; in [19] it was 56.2%; in [20], 58%.

As to `COc1cccc2nc(Nc3cccc(NC(=O)c4ccc(N5CCOCC5)c(C(F)(F)F)c4)c3)ccc12`, the inhibition of growth at 10 µM in assay [1] is 59%; in [15] it was 87.2%. Further, the IC50 in assay [2] turned out to be 1.44 µM; in [3], 40.9 µM; in [4], 4.57 µM. For the same molecule, the Ratio IC50 in assay [5] amounted to 2.

For `COc1cccc2nc(Nc3cccc(NC(=O)c4ccc(Cl)c(C(F)(F)F)c4)c3)ccc12`, the inhibition of growth at 10 µM amounted to 12.9% in assay [1]; 32.9% in assay [6]; 56.8% in [7]; 54.8% in [8]; 31.8% in assay [9]; 48% in assay [10]. Also, the inhibition of growth at 10 µM was < 20% in assay [11]; 21.5% in [12]; 27.4% in [13]; < 20% in [14]; < 20% in [15]; < 20% in assay [16]. The inhibition of growth at 10 µM was determined as 27.5% in assay [17], 37.6% in assay [18], 50.3% in [19] and 21.3% in [20].

Turning to `CC(=O)O[C@H]1C(=O)[C@@]2(C)[C@H]([C@H](OC(=O)c3ccccc3)[C@]3(O)C[C@H](OC(=O)[C@H](O)[C@@H](NC(=O)c4ccccc4)c4ccccc4)C(C)=C1C3(C)C)[C@]1(OC(C)=O)CO[C@@H]1C[C@@H]2O`, the result in assay [21] was Active.

For the molecule `COc1cccc2nc(Nc3cccc(NC(=O)c4cc(C(F)(F)F)cc(C(F)(F)F)c4)c3)ccc12`, the inhibition of growth at 10 µM turned out to be 13.6% in [1]; 34.4% in assay [6]; 77.3% in [7]; 65.2% in assay [8]; 41.9% in assay [9]; 57.4% in [10]. Further, the inhibition of growth at 10 µM in assay [11] was 48%; in assay [12], 67.5%; in [13], 23.5%; in assay [14], < 20%; in [15] it was < 20%; in [16] it was < 20%. Moreover, the inhibition of growth at 10 µM in [17] was 28.6%; in [18] it was 28.2%; in assay [19], 62.7%; in assay [20] it was < 20%. Moreover, the IC50 is 4.79 µM in assay [2], > 100 µM in assay [3] and 9.45 µM in [4].

A word on the IC50: it is the concentration at which inhibition is half-maximal.
